{
  "source": "patent US20230365596A1",
  "about": "“CRYSTAL FORMS OF PYRIDOPYRAZOLE COMPOUNDS AND PREPARATION METHOD THEREFOR” (GUANGZHOU BAIYUNSHAN PHARMACEUTICAL HOLDINGS CO., LTD. …, priority 2020, published 2023)",
  "key": {"[1]": {"molecular_target": "RET (Homo sapiens, UniProt P07949)", "sequence (P07949 29-1114)": "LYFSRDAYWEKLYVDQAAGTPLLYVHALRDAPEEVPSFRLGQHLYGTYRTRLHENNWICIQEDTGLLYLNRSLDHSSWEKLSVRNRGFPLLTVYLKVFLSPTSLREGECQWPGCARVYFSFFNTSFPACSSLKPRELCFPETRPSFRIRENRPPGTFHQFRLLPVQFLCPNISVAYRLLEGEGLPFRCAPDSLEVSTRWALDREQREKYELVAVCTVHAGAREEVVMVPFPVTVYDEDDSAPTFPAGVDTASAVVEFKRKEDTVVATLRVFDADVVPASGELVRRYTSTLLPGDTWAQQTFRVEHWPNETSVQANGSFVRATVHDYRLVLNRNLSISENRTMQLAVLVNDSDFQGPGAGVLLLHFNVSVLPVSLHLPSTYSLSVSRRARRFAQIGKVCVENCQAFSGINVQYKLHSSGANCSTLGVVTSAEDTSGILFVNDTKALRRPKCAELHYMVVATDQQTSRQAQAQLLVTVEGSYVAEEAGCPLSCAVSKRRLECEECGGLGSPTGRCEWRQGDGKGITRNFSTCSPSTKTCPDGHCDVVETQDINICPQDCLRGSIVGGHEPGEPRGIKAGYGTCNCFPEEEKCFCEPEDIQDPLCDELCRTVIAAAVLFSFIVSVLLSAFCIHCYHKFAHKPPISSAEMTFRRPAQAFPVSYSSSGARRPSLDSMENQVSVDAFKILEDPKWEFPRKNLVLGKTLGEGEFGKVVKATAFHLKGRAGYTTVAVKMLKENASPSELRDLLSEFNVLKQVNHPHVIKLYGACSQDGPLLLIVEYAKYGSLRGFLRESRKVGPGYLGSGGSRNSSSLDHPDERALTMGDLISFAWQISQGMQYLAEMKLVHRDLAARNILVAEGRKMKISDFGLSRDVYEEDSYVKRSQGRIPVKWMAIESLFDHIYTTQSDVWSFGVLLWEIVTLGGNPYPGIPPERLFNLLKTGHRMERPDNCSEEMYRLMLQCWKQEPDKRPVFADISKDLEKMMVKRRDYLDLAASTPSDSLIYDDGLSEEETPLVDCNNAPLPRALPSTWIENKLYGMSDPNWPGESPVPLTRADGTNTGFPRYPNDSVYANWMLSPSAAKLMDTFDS", "assay": "In vitro enzyme activity test, RET kinase", "assay_type": "biochemical", "conditions": "ATP 20 μM", "procedure": "(§1) The enzyme activity was experimentally detected by Z'-LYTE™ kinase test, and the inhibitory effect of the compound on RET and RET (V804M) kinase was evaluated with the IC50 value of the compound as an indicator. The concentration of the compound used for the RET and RET (V804M) kinase test was diluted by a factor of 3, giving 10 concentrations from 3 μM to 0.152 nM. The content of DMSO in the detection reaction was 1%. Basic reaction buffer, 20 mM hydroxyethyl piperazine-ethanesulfonic acid (Hepes) (pH 7.5) buffer, 10 mM MgCl2, 1 mM ethylene glycol bis(aminoethyl ether)tetraacetic acid (EGTA), 0.02% polyoxyethylene dodecyl ether (Brij35), 0.02 mg/mL bovine serum protein, 0.1 mM Na3VO4, 2 mM dithiothreitol (DTT) and 1% DMSO. The compound to be tested was dissolved in 100% DMSO system and diluted to 10 mM for use. Integra Viaflo Assist was used for solution dilution. Test conditions: The concentration of RET enzyme was […], the concentration of the peptide substrate CHKtide was 1000 μM, and the concentration of ATP was 20 μM; and the concentration of RET (V804M) enzyme was […], the concentration of substrate peptide was 1000 μM, and the concentration of ATP was 30 μM. […]. Phosphoric acid with a concentration of 0.5% was added to the kinase reaction solution to stop the reaction, and Envision instrument was used for plate reading. […]"}, "[2]": {"molecular_target": "RET (V804M) (Homo sapiens, UniProt P07949, V804M)", "sequence (P07949 29-1114 V804M)": "as the sequence (P07949 29-1114) above, with V776M counted along it", "assay": "In vitro enzyme activity test, RET (V804M) kinase", "assay_type": "biochemical", "conditions": "ATP 30 μM", "procedure": "as §1"}, "[3]": {"assay": "Pharmacokinetic evaluation in mice (IV and PO)", "assay_type": "in vivo", "conditions": "mouse, plasma, female Balb/c mice", "procedure": "Experimental procedure: A 0.1 mg/mL clear solution of the test compound in the corresponding solvent medium (see Table 22) was injected into female Balb/c mice (fasting overnight, 7-9 weeks old) via tail vein at a dose of 0.2 mg/kg. About 30 μL of blood was collected from jugular vein or tail vein at 0.0833, 0.25, 0.5, 1.0, 2.0, 4.0, 8.0 and 24 h after intravenous administration. 0.2 mg/mL of the test compound suspended in the corresponding solvent medium (see Table 22) was given to female Balb/c mice (fasting overnight, 7-9 weeks old) by gavage at a dose of 2 mg/kg. The experimental conditions were detailed in Table 22. At 0.0833, 0.25, 0.5, 1.0, 2.0, 4.0, 6.0, 8.0 and 24 h after oral administration, about 30 μL of blood was collected from the jugular vein or tail vein of the female Balb/c mice. The blood was placed in an anticoagulant tube in which EDTA-K2 had been added, and plasma was separated by centrifugation. The plasma concentration was determined by LC-MS/MS method, and the relative pharmacokinetic parameters were calculated using WinNonlin™ Version 6.3 (Pharsight, Mountain View, CA) pharmacokinetic software by non-compartment model linear logarithmic trapezoidal method. [table]"}, "[4]": {"system": "Ba/F3-CCDC6-RET cell xenograft tumor model", "assay": "Analysis of tumor growth inhibition (TGI)", "assay_type": "in vivo, BALB/c nude female mice", "conditions": "10 mg/kg D0-D13 / 5 mg/kg D14-D17 / 2.5 mg/kg D18-D28, BID", "procedure": "Ba/F3-CCDC6-RET cell strain was cultured using 1640 medium (Biological Industries)+10% fetal bovine serum (BI)+1% double antibody (Penicillin Streptomycin solution, Coring, USA) at 37° C. with 5% CO2 and subcultured twice a week. When the cell saturation is 80-90%, cells were collected, counted, and inoculated subcutaneously into the right axillary of BALB/c nude female mice (6-8 weeks). After the inoculation was completed, the tumor growth status was observed day by day. When the average tumor volume reached about 165.77 mm^3, the mice were randomly divided into groups, with 6 mice per group, and administration was started.\nThe health status and death of the animals were detected daily. Routine examinations included tumor growth, activity, diet, weight, eyes, hair and other abnormal behaviors of the animals, and the tumor volume and weight were measured twice a week (Tuesday and Friday).\nThe inhibitory effect of the compound on tumor growth was evaluated by the relationship between tumor volume and time. The tumor volume was measured by vernier caliper, with the formula being TV=0.5 a×b^2, wherein, “a” was the long diameter of the tumor and “b” was the short diameter of the tumor. […]\nit was calculated by the following formula: […]"}, "[5]": {"assay": "Hygroscopicity study by dynamic vapor sorption (DVS)", "assay_type": "physicochemical", "conditions": "25° C. and 80% RH", "procedure": "• Instrument model: SMS DVS Intrinsic dynamic vapor sorption instrument • Test conditions: A sample (10-15 mg) is taken and placed in a DVS sample tray for testing.\nDetailed DVS Parameters are as Follows: • Temperature: 25° C. • Balance: dm/dt=0.01%/min (shortest: 10 min, longest: 180 min) • Drying: at 0% RH for 120 min • RH (%) test gradient: 10% • RH (%) test gradient range: 0%-90%-0%\nHygroscopicity Assessment is Classified as Follows:\nSMS DVS Intrinsic Dynamic Vapor Sorption Instrument"}, "[6]": {"assay": "Solid stability experiment, high temperature and high humidity (XRPD)", "assay_type": "physicochemical", "excerpt": "For samples placed under high temperature and high humidity, use aluminum foil to seal the bottle, and prick some holes on the aluminum foil to ensure that the sample can fully contact with the ambient air. The samples placed under different conditions were sampled for XRPD detection on Days 5 and 10, and the test results were compared with the initial test results on Day 0."}, "[7]": {"assay": "Solid stability study, long-term conditions (XRPD)", "assay_type": "physicochemical", "conditions": "for Crystal form (XRPD): 3 months", "procedure": "The flasks were placed under 40° C./75% RH conditions for 3 months or under 25° C./60% RH conditions for 3 months, then sampled for XRPD detection, and the detection results were compared with the initial test results of Day 0."}},
  "data": [
    {"smiles": "COc1ccc(CN2C3CC2CN(c2cnc(-c4cc(C5=CCOCC5)cn5ncc(C#N)c45)cn2)C3)cn1", "note": "[listing 1 of 2 here]", "values": [
      {"measurement": "IC50", "setting": "[1]", "result": 0.72, "unit": "nM"},
      {"measurement": "IC50", "setting": "[2]", "result": 5.86, "unit": "nM"},
      {"measurement": "AUC(0-t)", "setting": "[3]; IV 0.2 mg/kg", "result": 2.79, "unit": "µM·h"},
      {"measurement": "clearance", "setting": "[3]; IV 0.2 mg/kg, read-out: Cl (plasma clearance)", "result": 2.3, "unit": "mL/min/kg"},
      {"measurement": "half-life", "setting": "[3]; IV 0.2 mg/kg, read-out: T1/2 (elimination half-life) (converted)", "result": 2.6, "unit": "h"},
      {"measurement": "Vd", "setting": "[3]; IV 0.2 mg/kg, read-out: Vdss (apparent steady-state distribution volume)", "result": 0.5, "unit": "L/kg"},
      {"measurement": "AUC(0-t)", "setting": "[3]; PO 2 mg/kg", "result": 26.9, "unit": "µM·h"},
      {"measurement": "Cmax", "setting": "[3]; PO 2 mg/kg", "result": 5.34, "unit": "µM"},
      {"measurement": "Tmax", "setting": "[3]; PO 2 mg/kg", "result": 2, "unit": "h"},
      {"measurement": "TGI % (tumor volume on Day 23 after administration)", "setting": "[4]", "result": 98, "unit": "%"}
    ]},
    {"smiles": "COc1ccc(CN2C3CC2CN(c2cnc(-c4cc(C5=CCOCC5)cn5ncc(C#N)c45)cn2)C3)cn1", "note": "[listing 2 of 2 here]", "values": [
      {"measurement": "Classification of hygroscopicity", "setting": "[5]", "result": "slightly hygroscopic"},
      {"measurement": "ΔW (hygroscopic weight gain)", "setting": "[5]", "result": 0.8, "unit": "%"},
      {"measurement": "Crystal form (XRPD)", "setting": "[6]; High humidity (room temperature/relative humidity 92.5%, open), Day 5", "result": "Crystal form A"},
      {"measurement": "Crystal form (XRPD)", "setting": "[6]; High humidity (room temperature/relative humidity 92.5%, open), Day 10", "result": "Crystal form A"},
      {"measurement": "Crystal form (XRPD)", "setting": "[6]; High temperature (60° C., open), Day 5", "result": "Crystal form A"},
      {"measurement": "Crystal form (XRPD)", "setting": "[6]; High temperature (60° C., open), Day 10", "result": "Crystal form A"},
      {"measurement": "Solid stability (in words)", "setting": "[6]; high temperature and high humidity", "result": "good stability"},
      {"measurement": "Crystal form (XRPD)", "setting": "[7]; 25° C./60% RH", "result": "Crystal form A"},
      {"measurement": "Crystal form (XRPD)", "setting": "[7]; 40° C./75% RH", "result": "Crystal form A"},
      {"measurement": "Crystal form change (in words)", "setting": "[7]; all stability conditions (40° C./75% RH, 25° C./60% RH, 3 months)", "result": "no crystal form change"},
      {"measurement": "Solid stability (in words)", "setting": "[7]; long-term conditions", "result": "good stability"}
    ]}
  ]
}
